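Step 1: Grow cells in 96-well plates. Step 2: Expose to compound for 48 hours at 5 concentrations. Step 3: Interpolate endpoints linearly; if unreached, use highest concentration. GI50 = concentration required for 50% inhibition of growth. At the TGI there is no net growth.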
Assays:
Experiment in all cases: NCI-60 cell line screen, 48 h
[1] = tested on: 786-0 renal
[2] = tested on: A498 renal
[3] = tested on: A549 NSCLC
[4] = tested on: ACHN renal
[5] = tested on: BT-549 breast
[6] = tested on: CAKI-1 renal
[7] = tested on: COLO 205 colon
[8] = tested on: DU-145 prostate
[9] = tested on: EKVX NSCLC
[10] = tested on: HCC-2998 colon
[11] = tested on: HCT-116 colon
[12] = tested on: HCT-15 colon
[13] = tested on: HL-60(TB) leukemia
[14] = tested on: HOP-62 NSCLC
[15] = tested on: HOP-92 NSCLC
[16] = tested on: HS 578T breast
[17] = tested on: HT29 colon
[18] = tested on: IGROV1 ovarian
[19] = tested on: K-562 leukemia
[20] = tested on: KM12 colon
[21] = tested on: LOX IMVI melanoma
[22] = tested on: M14 melanoma
[23] = tested on: MALME-3M melanoma
[24] = tested on: MCF7 breast
[25] = tested on: MDA-MB-231 breast
[26] = tested on: MDA-MB-435
[27] = tested on: NCI-H226 lung
[28] = tested on: NCI-H23 lung
[29] = tested on: NCI-H460 lung
[30] = tested on: NCI-H522 lung
[31] = tested on: NCI/ADR-RES ovarian
[32] = tested on: OVCAR-4 ovarian
[33] = tested on: OVCAR-5 ovarian
[34] = tested on: OVCAR-8 ovarian
[35] = tested on: PC-3 prostate
[36] = tested on: RXF 393 renal
[37] = tested on: SF-268 CNS
[38] = tested on: SF-295 CNS
[39] = tested on: SF-539 CNS
[40] = tested on: SK-MEL-2 melanoma
[41] = tested on: SK-MEL-28 melanoma
[42] = tested on: SK-MEL-5 melanoma
[43] = tested on: SK-OV-3 ovarian
[44] = tested on: SN12C renal
[45] = tested on: SNB-19 CNS
[46] = tested on: SNB-75 CNS
[47] = tested on: SR leukemia
[48] = tested on: SW-620 colon
[49] = tested on: T-47D breast
[50] = tested on: TK-10 renal
[51] = tested on: U251 CNS
[52] = tested on: UACC-257 melanoma
[53] = tested on: UACC-62 melanoma
[54] = tested on: UO-31 renal

SMILES: COc1cc2c(cc1OC)C(Sc1ccc(C)cc1)c1c(nc(N)c(C#N)c1N)O2 (centres undefined)
- GI50 [1]: 1420 nM
- TGI [1]: 2790 nM
- GI50 [2]: 1380 nM
- TGI [2]: 2670 nM
- GI50 [3]: 1730 nM
- TGI [3]: 3270 nM
- GI50 [4]: 1510 nM
- TGI [4]: 2860 nM
- GI50 [5]: 1220 nM
- TGI [5]: 2490 nM
- GI50 [6]: 1050 nM
- TGI [6]: 2250 nM
- GI50 [7]: 1490 nM
- TGI [7]: 2870 nM
- GI50 [8]: 1680 nM
- TGI [8]: 3050 nM
- GI50 [9]: 1690 nM
- TGI [9]: 3130 nM
- GI50 [10]: 1580 nM
- TGI [10]: 3120 nM
- GI50 [11]: 1510 nM
- TGI [11]: 3030 nM
- GI50 [12]: 1000 nM
- TGI [12]: 2430 nM
- GI50 [13]: 431 nM
- TGI [13]: 4050 nM
- GI50 [14]: 1800 nM
- TGI [14]: 3240 nM
- GI50 [15]: 1510 nM
- TGI [15]: 2930 nM
- GI50 [16]: 1970 nM
- TGI [16]: 4870 nM
- GI50 [17]: 1770 nM
- TGI [17]: 3430 nM
- GI50 [18]: 715 nM
- TGI [18]: 2040 nM
- GI50 [19]: 558 nM
- TGI [19]: > 100000 nM
- GI50 [20]: 1630 nM
- TGI [20]: 3010 nM
- GI50 [21]: 1050 nM
- TGI [21]: 2420 nM
- GI50 [22]: 1770 nM
- TGI [22]: 3290 nM
- GI50 [23]: 1740 nM
- TGI [23]: 3240 nM
- GI50 [24]: 742 nM
- TGI [24]: 2270 nM
- GI50 [25]: 1650 nM
- TGI [25]: 3130 nM
- GI50 [26]: 1580 nM
- TGI [26]: 3010 nM
- GI50 [27]: 1900 nM
- TGI [27]: 3990 nM
- GI50 [28]: 1590 nM
- TGI [28]: 3100 nM
- GI50 [29]: 1760 nM
- TGI [29]: 3360 nM
- GI50 [30]: 1620 nM
- TGI [30]: 3070 nM
- GI50 [31]: 1670 nM
- TGI [31]: 3370 nM
- GI50 [32]: 1660 nM
- TGI [32]: 3070 nM
- GI50 [33]: 1810 nM
- TGI [33]: 3310 nM
- GI50 [34]: 1550 nM
- TGI [34]: 2910 nM
- GI50 [35]: 1510 nM
- TGI [35]: 2930 nM
- GI50 [36]: 1150 nM
- TGI [36]: 2420 nM
- GI50 [37]: 1560 nM
- TGI [37]: 3080 nM
- GI50 [38]: 1600 nM
- TGI [38]: 3050 nM
- GI50 [39]: 1570 nM
- TGI [39]: 2930 nM
- GI50 [40]: 1590 nM
- TGI [40]: 2990 nM
- GI50 [41]: 1670 nM
- TGI [41]: 3060 nM
- GI50 [42]: 1780 nM
- TGI [42]: 3220 nM
- GI50 [43]: 1910 nM
- TGI [43]: 3350 nM
- GI50 [44]: 1490 nM
- TGI [44]: 2860 nM
- GI50 [45]: 1460 nM
- TGI [45]: 2840 nM
- GI50 [46]: 1220 nM
- TGI [46]: 2470 nM
- GI50 [47]: 291 nM
- TGI [47]: > 100000 nM
- GI50 [48]: 1240 nM
- TGI [48]: 2740 nM
- GI50 [49]: 1220 nM
- TGI [49]: 3560 nM
- GI50 [50]: 1200 nM
- TGI [50]: 2470 nM
- GI50 [51]: 1360 nM
- TGI [51]: 2750 nM
- GI50 [52]: 1630 nM
- TGI [52]: 3070 nM
- GI50 [53]: 1740 nM
- TGI [53]: 3220 nM
- GI50 [54]: 1070 nM
- TGI [54]: 2250 nM

SMILES: NC(N)=Nc1ccc(Oc2cccc(Nc3ccc(Cl)c(C(F)(F)F)c3)c2)cn1
- GI50 [2]: 1230 nM
- TGI [2]: 2670 nM
- GI50 [4]: 1740 nM
- TGI [4]: 3210 nM
- GI50 [13]: 1890 nM
- TGI [13]: 4520 nM
- GI50 [19]: 1910 nM
- TGI [19]: > 100000 nM
- GI50 [31]: 3740 nM
- TGI [31]: 30500 nM
- GI50 [36]: 1780 nM
- TGI [36]: 3580 nM
- GI50 [43]: 1890 nM
- TGI [43]: 3430 nM
- GI50 [46]: 1420 nM
- TGI [46]: 2770 nM
